Experimental data as given in patent US10328053B2 (Gilead Sciences, Inc., priority 2016, dated 2019).

Tests used:
[1] = test system: HBV AD38 viral particles in HepG2 cell line overexpressing NTCP; test: HBV DNA Quantification Assay; assay type: cell-based; settings: Hepatitis B virus, HepG2, 120 h, HBV-infected HepG2-NTCP cells, 5 days incubation, HBV DNA in culture supernatant (QuantiGene 2.0); geometric mean of a minimum of four determinations
Protocol: HBV DNA Quantification Assay
A HepG2 cell line overexpressing the HBV virus attachment receptor sodium-taurocholate cotransporting polypeptide (NTCP) was grown to confluency in DMEM growth medium, Dulbecco's Modified Eagle Medium without sodium pyruvate (Life Technologies, Rockville, Md.) supplemented with 10% FBS (Thermo Scientific, Waltham, Md.), 1% penicillin/streptomycin (Life Technologies, Rockville, Md.) and 2 mM L-glutamine (Life Technologies, Rockville, Md.) in T175 flasks. Cells were infected with HBV AD38 viral particles (Texcell, Frederick, USA) at 4000 genome equivalents per cell. After allowing viral infection to take place for 4 days, the infected cells were harvested from the flasks by trypsinization, washed twice with OptiMEM (Life Technologies, Rockville, Md.) and re-suspended in DMEM containing 2% FBS and 1% DMSO at a density of 0.25E6 cells/ml. Infected cells were seeded on 384 well collagen coated plates (Greiner, Austria) at a density of 20,000 cells/well containing serially diluted compounds of the present disclosure or DMSO (0.5%) in a final volume of 80 μl. The assay plates were incubated for a period of 5 days and the antiviral activity of the test compounds were assayed by detecting the presence of HBV DNA in the culture supernatant using the QuantiGene™ 2.0 nucleic acid quantification kit (Affymetrix, Santa Clara, Calif.).
The culture supernatant was harvested and treated with lysis buffer containing Proteinase K (Affymetrix, Santa Clara, Calif.). The supernatant was incubated with HBV viral DNA specific probes (Affymetrix, Santa Clara, Calif.) for 30 minutes at 55° C. This was followed by addition of 0.2M NaOH for 30 minutes at room temperature to denature the DNA, followed by addition of Neutralization buffer (Affymetrix, Santa Clara, Calif.). The resulting lysed and neutralized supernatant was then added to QuantiGene™ 2.0 384 well plates coated with capture oligonucleotides and incubated overnight at 55° C. The HBV specific probe set consists of Capture Extender oligonucleotides (CE's) and blocking probes. Following the overnight incubation, the wells were incubated for one hour sequentially with a Pre-Amplifier, Amplifier and Labeled probes conjugated to alkaline phosphatase with a wash step between incubations. After the final wash step, the alkaline phosphatase substrate (Luminol APS5) was added and the resulting luminescence signal was read in an EnVision Multilabel Plate Reader (PerkinElmer, Santa Clara, Calif.). The EC50 values were calculated from the fit of the dose—response curves to a four-parameter equation. All EC50 values represent geometric mean values of a minimum of four determinations.

[2] = Hepatic Stability Assay (in vitro half-life method); assay type: in vitro ADME; set-up: dose or concentration left out as unconfirmed; settings: pooled cryopreserved hepatocytes, 37° C., 1×10^6 cells/mL, 0-6 hours, LC-MS/MS, 39.5 hours is the maximum detectable half life, read-out: t½ (converted)
Outline: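 Pooled cryopreserved hepatocytes (1×10^6 cells/mL) incubated with compound at […] test concentration, 37° C.; samples at 0, 1, 3 and 6 h quantified by LC-MS/MS. Half-life from rate of compound disappearance, scaled to predicted hepatic clearance via well-stirred model.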

| SMILES | EC50 [1] [nM] | half-life [2] [h] |
| --- | --- | --- |
| Cc1c(C(=O)C(=O)NC2(c3c[nH]nn3)CC(F)(F)C2)c2n(c1C(=O)Nc1cc(F)c(F)c(F)c1)[C@@H]1C[C@@H]1C2 [Example 40, (1aR,6aR)-5-(2-((3,3-difluoro-1-(1H-1,2,3-triazol-4-yl)cyclobutyl)amino)-2-oxoacetyl)-4-methyl-N-(3,4,5-trifluorophenyl)-1,1a,6,6a-tetrahydrocyclopropa[b]pyrrolizine-3-carboxamide] | 1.9 | 5.2 |
| Cc1c(C(=O)C(=O)NC2(c3c[nH]nn3)CC(F)(F)C2)c2n(c1C(=O)Nc1ccc(F)c(C#N)c1)[C@@H]1C[C@@H]1C2 [Example 41, (1aR,6aR)—N-(3-cyano-4-fluorophenyl)-5-(2-((3,3-difluoro-1-(1H-1,2,3-triazol-4-yl)cyclobutyl)amino)-2-oxoacetyl)-4-methyl-1,1a,6,6a-tetrahydrocyclopropa[b]pyrrolizine-3-carboxamide] | 7.5 | 4.9 |
| Cc1c(C(=O)C(=O)NC2(c3c[nH]nn3)CC(F)(F)C2)c2n(c1C(=O)Nc1ccc(F)c(F)c1)[C@@H]1C[C@@H]1C2 [Example 42, (1aR,6aR)-5-(2-((3,3-difluoro-1-(1H-1,2,3-triazol-4-yl)cyclobutyl)amino)-2-oxoacetyl)-N-(3,4-difluorophenyl)-4-methyl-1,1a,6,6a-tetrahydrocyclopropa[b]pyrrolizine-3-carboxamide] | 2.1 | 3.5 |
| Cc1c(C(=O)C(=O)NC2(c3c[nH]nn3)CC2)c2n(c1C(=O)Nc1ccc(F)c(Cl)c1)C[C@H](F)C2 [Example 45, (R)-7-(2-((1-(1H-1,2,3-triazol-4-yl)cyclopropyl)amino)-2-oxoacetyl)-N-(3-chloro-4-fluorophenyl)-2-fluoro-6-methyl-2,3-dihydro-1H-pyrrolizine-5-carboxamide] | 9.1 | 13.3 |
| Cc1c(C(=O)C(=O)NC2(c3c[nH]nn3)CC2)c2n(c1C(=O)Nc1ccc(F)c(Cl)c1)C[C@@H](F)C2 [Example 46, (S)-7-(2-((1-(1H-1,2,3-triazol-4-yl)cyclopropyl)amino)-2-oxoacetyl)-N-(3-chloro-4-fluorophenyl)-2-fluoro-6-methyl-2,3-dihydro-1H-pyrrolizine-5-carboxamide] | 264 | 16 |
| Cc1c(C(=O)C(=O)NC2(c3c[nH]nn3)CC(F)(F)C2)c2n(c1C(=O)Nc1ccc(F)cc1)C[C@H](F)C2 [Example 48, (R)-7-(2-((3,3-difluoro-1-(1H-1,2,3-triazol-4-yl)cyclobutyl)amino)-2-oxoacetyl)-2-fluoro-N-(4-fluorophenyl)-6-methyl-2,3-dihydro-1H-pyrrolizine-5-carboxamide] | 6.5 | 7.9 |
| Cc1c(C(=O)C(=O)NC2(c3c[nH]nn3)CC2)c2n(c1C(=O)Nc1ccc(F)c(Cl)c1)[C@@H]1C[C@@H]1C2 [Example 52, (1aR,6aR)-5-(2-((1-(1H-1,2,3-triazol-4-yl)cyclopropyl)amino)-2-oxoacetyl)-N-(3-chloro-4-fluorophenyl)-4-methyl-1,1a,6,6a-tetrahydrocyclopropa[b]pyrrolizine-3-carboxamide] | 7.7 | 4.2 |
| Cc1c(C(=O)C(=O)NC2(c3c[nH]nn3)CC(F)(F)C2)c2n(c1C(=O)Nc1cc(F)c(F)c(F)c1)CCC2 [Example 53, 7-(2-((3,3-difluoro-1-(1H-1,2,3-triazol-4-yl)cyclobutyl)amino)-2-oxoacetyl)-6-methyl-N-(3,4,5-trifluorophenyl)-2,3-dihydro-1H-pyrrolizine-5-carboxamide] | 3.2 | 10.8 |
| Cc1c(C(=O)C(=O)NC2(c3nncs3)CC2)c2n(c1C(=O)Nc1ccc(F)c(Cl)c1)[C@@H]1C[C@@H]1C2 [Example 54, (1aR,6aR)-5-(2-((1-(1,3,4-thiadiazol-2-yl)cyclopropyl)amino)-2-oxoacetyl)-N-(3-chloro-4-fluorophenyl)-4-methyl-1,1a,6,6a-tetrahydrocyclopropa[b]pyrrolizine-3-carboxamide] | 7.8 | 6.7 |
